The test system of one experiment is normal NMRI mice. Description: Effect on acute food intake in normal NMRI mice. Format: in vivo. Particulars: male NMRI mice, 10 nmol/kg subcutaneously once. As to the method:
Male NMRI mice were obtained from Charles River (Charles River, Research Models & Services Germany GmbH) or from Jan Vier (Jan Vier Labs, France) at 5 weeks of age. […] Room temperature was controlled to 21° C.±1° C., with 60%+20% humidity.
Animals were transferred 5-7 days before the start of the study to a real-time food intake monitoring system, HM-2 system (MBRose, Denmark), to allow acclimatization to experimental conditions. As the animals were uniquely identified with microchips, each individual animal was identified by its microchip upon entry and exit from the food channel. Randomization of the mice for each study group (n=7-8) was based on body weight measured the day before the start of the study. A vehicle-treated (50 mM phosphate buffer pH7 with 5% Mannitol) group was included in each experiment. Six hours before the start of the night phase animals were fasted. One hour before the dark phase animals were dosed once subcutaneously (10 nmol/kg) with test peptide. […] The food intake of the treated groups was normalized (in %) to the average food intake of the group receiving vehicle (Table 7). Statistical significance was evaluated using One-way analysis of variance with Turkey's multiple comparison test. P<0.05 was considered statistically significant.

Experiment [1] deals with T1, Human Neuropeptide Y2 Receptor (Homo sapiens, UniProt P49146).
T1 construct: purchased CHEMICON HTS066M
T1 sequence (P49146 1-381): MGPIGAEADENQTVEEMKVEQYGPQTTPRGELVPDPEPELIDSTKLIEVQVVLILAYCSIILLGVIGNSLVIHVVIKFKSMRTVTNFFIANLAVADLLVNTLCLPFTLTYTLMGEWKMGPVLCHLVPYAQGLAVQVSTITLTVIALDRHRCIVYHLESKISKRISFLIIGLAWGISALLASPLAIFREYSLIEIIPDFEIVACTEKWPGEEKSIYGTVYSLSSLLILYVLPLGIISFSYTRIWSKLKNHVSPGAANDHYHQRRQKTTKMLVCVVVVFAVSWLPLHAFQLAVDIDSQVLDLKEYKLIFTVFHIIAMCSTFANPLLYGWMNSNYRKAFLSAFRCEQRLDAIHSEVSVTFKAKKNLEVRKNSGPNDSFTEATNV
Description: Radioligand binding competition assay (RLB). The conditions noted are these: Table 3; human 125I-PYY (1-36) 0.02 nM, Y2 receptor membranes; read-out: Ki. A digest of the protocol:
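Filtration format; Y2R membrane prep 0.5 μg/well; buffer 50 mM HEPES/5 mM MgCl2/1 mM CaCl2/0.2% ovalbumin pH 7.4; 2 h RT, shaking. Harvest on PEI-soaked GF/C, ice-cold HEPES/500 mM NaCl washes, scintillation count. IC50 by nonlinear fit.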

Turning to `CC(C)CC(=O)N[C@@H](C)C(=O)N1CCC[C@H]1C(=O)N[C@@H](CCC(=O)O)C(=O)N[C@@H](CCCCNC(=O)COCCOCCNC(=O)COCCOCCNC(=O)CC[C@H](NC(=O)CCCCCCCCCCCCCCCCC(=O)O)C(=O)O)C(=O)N1CCC[C@H]1C(=O)N[C@@H](CCC(=O)O)C(=O)N[C@@H](CCC(=O)O)C(=O)N[C@@H](CC(=O)O)C(=O)N[C@@H](C)C(=O)N[C@@H](CO)C(=O)N1CCC[C@H]1C(=O)N[C@@H](CCC(=O)O)C(=O)N[C@@H](CCC(=O)O)C(=O)N[C@H](C(=O)N[C@@H](CCC(N)=O)C(=O)N[C@@H](CCCNC(=N)N)C(=O)N[C@@H](Cc1ccc(O)cc1)C(=O)N[C@@H](Cc1ccc(O)cc1)C(=O)N[C@H](C(=O)N[C@H](C(=O)N[C@@H](CC(C)C)C(=O)N[C@@H](CCCNC(=N)N)C(=O)N[C@@H](Cc1c[nH]cn1)C(=O)N[C@@H](Cc1ccc(O)cc1)C(=O)N[C@@H](Cc1ccc(O)cc1)C(=O)N[C@@H](CC(N)=O)C(=O)N[C@@H](Cc1c[nH]c2ccccc12)C(=O)N[C@@H](CC(C)C)C(=O)N[C@H](C(=O)N[C@@H](CCCNC(=N)N)C(=O)N[C@@H](CCC(N)=O)C(=O)N[C@@H](CCCNC(=N)N)C(=O)N[C@@H](Cc1ccc(O)cc1)C(N)=O)[C@@H](C)O)[C@@H](C)O)C(C)C)[C@@H](C)O` [Compound 16, N{alpha-4}-(3-methylbutanoyl)-N{epsilon-7}-[2-(2-{2-[2-(2-{2-[(4S)-4-carboxy-4-(17-carboxyheptadecanamido)butanamido]ethoxy}ethoxy)acetamido]ethoxy}ethoxy)acetamido]-[4A,7K,9E,17T,18Q,22V,23T,28Y,30W,31L]hPYY (4-36)], the “Acute Food Intake 24 h [% vehicle]” value in the experiment with normal NMRI mice was 67 % vehicle. Further, the Ki – broadly, a dissociation constant, usually derived from enzyme kinetics or from competition with a known ligand – in experiment [1] amounted to 3.09 nM.
For `CC(C)CC(=O)N[C@@H](C)C(=O)N1CCC[C@H]1C(=O)N[C@@H](CCC(=O)O)C(=O)N[C@@H](CCCCNC(=O)COCCOCCNC(=O)COCCOCCNC(=O)CC[C@H](NC(=O)CCCCCCCCCCCCCCCCC(=O)O)C(=O)O)C(=O)N1CCC[C@H]1C(=O)N[C@@H](CCC(=O)O)C(=O)N[C@@H](CCC(=O)O)C(=O)N[C@@H](CC(=O)O)C(=O)N[C@@H](C)C(=O)N[C@@H](CCC(=O)O)C(=O)N1CCC[C@H]1C(=O)N[C@@H](C)C(=O)N[C@@H](CCC(=O)O)C(=O)N[C@@H](CC(C)C)C(=O)N[C@@H](CCC(N)=O)C(=O)N[C@@H](CCCNC(=N)N)C(=O)N[C@@H](Cc1ccc(O)cc1)C(=O)N[C@@H](Cc1ccc(O)cc1)C(=O)N[C@H](C(=O)N[C@@H](CO)C(=O)N[C@@H](CC(C)C)C(=O)N[C@@H](CCCNC(=N)N)C(=O)N[C@@H](Cc1c[nH]cn1)C(=O)N[C@@H](Cc1ccc(O)cc1)C(=O)N[C@@H](Cc1ccc(O)cc1)C(=O)N[C@@H](CC(N)=O)C(=O)N[C@@H](Cc1c[nH]c2ccccc12)C(=O)N[C@@H](CC(C)C)C(=O)N[C@H](C(=O)N[C@@H](CCCNC(=N)N)C(=O)N[C@@H](CCC(N)=O)C(=O)N[C@@H](CCCNC(=N)N)C(=O)N[C@@H](Cc1ccc(O)cc1)C(N)=O)[C@@H](C)O)C(C)C` [Compound 244, N{alpha-4}-(3-methylbutanoyl)-N{epsilon-7}-[2-(2-{2-[2-(2-{2-[(4S)-4-carboxy-4-(17-carboxyheptadecanamido)butanamido]ethoxy}ethoxy)acetamido]ethoxy}ethoxy)acetamido]-[4A,7K,9E,13E,15A,18Q,22V,28Y,30W,31L]hPYY (4-36)], the “Acute Food Intake 24 h [% vehicle]” value in the experiment with normal NMRI mice stood at 49 % vehicle. Besides, in experiment [1], the Ki came to 1.84 nM.
For the compound `CC(C)CC(=O)N[C@@H](C)C(=O)N1CCC[C@H]1C(=O)N[C@@H](CCC(=O)O)C(=O)N[C@@H](CCCCNC(=O)COCCOCCNC(=O)COCCOCCNC(=O)CC[C@H](NC(=O)CCCCCCCCCCCCCCCCC(=O)O)C(=O)O)C(=O)N1CCC[C@H]1C(=O)N[C@@H](CCC(=O)O)C(=O)N[C@@H](CCC(=O)O)C(=O)N[C@@H](CC(=O)O)C(=O)N[C@@H](C)C(=O)N[C@@H](CO)C(=O)N1CCC[C@H]1C(=O)N[C@@H](CCC(=O)O)C(=O)N[C@@H](CCC(=O)O)C(=O)N[C@H](C(=O)N[C@@H](CCC(N)=O)C(=O)N[C@@H](CCC(N)=O)C(=O)N[C@@H](Cc1ccc(O)cc1)C(=O)N[C@@H](Cc1ccc(O)cc1)C(=O)N[C@H](C(=O)N[C@@H](CO)C(=O)N[C@@H](CC(C)C)C(=O)N[C@@H](CCCNC(=N)N)C(=O)N[C@@H](Cc1c[nH]cn1)C(=O)N[C@@H](Cc1ccc(O)cc1)C(=O)N[C@@H](Cc1ccc(O)cc1)C(=O)N[C@@H](CC(N)=O)C(=O)N[C@@H](Cc1c[nH]c2ccccc12)C(=O)N[C@@H](CC(C)C)C(=O)N[C@H](C(=O)N[C@@H](CCCNC(=N)N)C(=O)N[C@@H](CCC(N)=O)C(=O)N[C@@H](CCCNC(=N)N)C(=O)N[C@@H](Cc1ccc(O)cc1)C(N)=O)[C@@H](C)O)C(C)C)[C@@H](C)O` [Compound 180, N{alpha-4}-(3-methylbutanoyl)-N{epsilon-7}-[2-(2-{2-[2-(2-{2-[(4S)-4-carboxy-4-(17-carboxyheptadecanamido)butanamido]ethoxy}ethoxy)acetamido]ethoxy}ethoxy)acetamido]-[4A,7K,9E,17T,18Q,19Q,22V,28Y,30W,31L]hPYY (4-36)], the “Acute Food Intake 24 h [% vehicle]” value with normal NMRI mice amounted to 74 % vehicle. The Ki in experiment [1] is 3.85 nM.
For the compound `CC(C)CC(=O)N[C@@H](C)C(=O)N1CCC[C@H]1C(=O)N[C@@H](CCC(=O)O)C(=O)N[C@@H](CCCCNC(=O)COCCOCCNC(=O)COCCOCCNC(=O)CC[C@H](NC(=O)CCCCCCCCCCCCCCCCC(=O)O)C(=O)O)C(=O)N1CCC[C@H]1C(=O)N[C@@H](CCC(=O)O)C(=O)N[C@@H](C)C(=O)N[C@@H](CCC(=O)O)C(=O)N[C@@H](C)C(=O)N[C@@H](CO)C(=O)N1CCC[C@H]1C(=O)N[C@@H](CCC(=O)O)C(=O)N[C@@H](CCC(=O)O)C(=O)N[C@@H](CC(C)C)C(=O)N[C@@H](CCC(N)=O)C(=O)N[C@@H](CCCNC(=N)N)C(=O)N[C@@H](Cc1ccc(O)cc1)C(=O)N[C@@H](Cc1ccc(O)cc1)C(=O)N[C@H](C(=O)N[C@@H](CO)C(=O)N[C@@H](CC(C)C)C(=O)N[C@@H](CCCNC(=N)N)C(=O)N[C@@H](Cc1c[nH]cn1)C(=O)N[C@@H](Cc1ccc(O)cc1)C(=O)N[C@@H](Cc1ccc(O)cc1)C(=O)N[C@@H](CC(N)=O)C(=O)N[C@@H](Cc1c[nH]c2ccccc12)C(=O)N[C@@H](CC(C)C)C(=O)N[C@H](C(=O)N[C@@H](CCCNC(=N)N)C(=O)N[C@@H](CCC(N)=O)C(=O)N[C@@H](CCCNC(=N)N)C(=O)N[C@@H](Cc1ccc(O)cc1)C(N)=O)[C@@H](C)O)C(C)C` [Compound 151, N{alpha-4}-(3-methylbutanoyl)-N{epsilon-7}-[2-(2-{2-[2-(2-{2-[(4S)-4-carboxy-4-(17-carboxyheptadecanamido)butanamido]ethoxy}ethoxy)acetamido]ethoxy}ethoxy)acetamido]-[4A,7K,9E,10A,11E,18Q,22V,28Y,30W,31L]hPYY (4-36)], the “Acute Food Intake 24 h [% vehicle]” value in the experiment on normal NMRI mice amounted to 45 % vehicle. The Ki in experiment [1] worked out at 1.43 nM.

(Values after patent US12559529B2, “NPY2 receptor agonists” (Boehringer Ingelheim International GmbH, priority 2019, dated 2026).)
